Experimental data reported in US5834482A, “Heterocyclic chemistry” (Novo Nordisk A/S, priority 1995, dated 1998).
Where a name gives a salt, the structure may show the parent alone. Read-outs that look alike come from different tables or passages of the source.

Legend:
[1] = target: T1, GABA uptake carrier (Rattus norvegicus, UniProt P31647); test: 3H-GABA uptake in crude membrane preparation from selected brain areas (in presence of NNC 05-0711); assay type: biochemical
T1 construct: A crude membrane preparation was prepared from selected brain areas; from tissue
T1 sequence (P31647 1-627): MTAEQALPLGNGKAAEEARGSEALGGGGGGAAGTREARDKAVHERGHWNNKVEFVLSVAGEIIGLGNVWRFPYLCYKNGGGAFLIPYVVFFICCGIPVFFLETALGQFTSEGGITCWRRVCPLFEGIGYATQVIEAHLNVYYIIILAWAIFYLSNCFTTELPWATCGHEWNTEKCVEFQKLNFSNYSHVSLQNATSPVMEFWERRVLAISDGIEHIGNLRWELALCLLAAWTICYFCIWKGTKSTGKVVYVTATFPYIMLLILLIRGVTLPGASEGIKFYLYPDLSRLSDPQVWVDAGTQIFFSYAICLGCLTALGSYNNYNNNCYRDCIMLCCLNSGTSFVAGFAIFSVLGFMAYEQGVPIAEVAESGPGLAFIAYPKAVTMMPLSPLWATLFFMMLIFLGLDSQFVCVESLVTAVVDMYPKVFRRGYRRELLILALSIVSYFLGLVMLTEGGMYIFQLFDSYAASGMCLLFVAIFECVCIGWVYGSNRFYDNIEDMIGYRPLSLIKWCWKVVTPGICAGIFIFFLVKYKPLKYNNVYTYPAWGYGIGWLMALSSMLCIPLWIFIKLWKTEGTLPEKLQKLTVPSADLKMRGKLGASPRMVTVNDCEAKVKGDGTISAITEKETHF
Method: ^3 H-GABA uptake was measured by a modification of the method of Fjalland et al., (1978). A crude membrane preparation was prepared from selected brain areas by homogenization in 20 ml of ice-cold 0.32M sucrose with a hand driven teflon/glass Potter-Elvehjem homogenizer. homogenate was centrifuged at 4° C. for 10 min. at 1000×g, and the pellet was discarded. The supernatant was recentrifuged at 4° C. for 20 min. at 20.000×g. The pellet was then homogenized in 50 volumes 0.32M sucrose. To 300 μl uptake-buffer ([…], 15.3 mM KCl, 6.67 mM MgSO4, 3.83 mM CaCl2, 16.67 mM glucose, 66.67 mM Tris, pH 7.5 at 30° C.) was added 1-(2-(((diphenylmethylene)amino)oxy)ethyl)-1,2,5,6-tetrahydro-3-pyridinecarboxylic acid (NNC 05-0711) (1 mM final concentration), 100 μl test substance and 50 μl tissue suspension. The sample were mixed and incubated at 30° C. for 8 min. Then ^3 H-GABA (0.9 nM final concentration) and unlabelled GABA (25 nM final concentration) was added, and the incubation was continued for an additional 8 min. The reaction was terminated by rapid filtration through Whatman GF/F glass fiber filters under vacuum. The filters were then washed twice in 10 ml of ice-cold isotonic saline, and the tritium trapped on the filters was quantified by conventional scintillation spectroscopy. Non-GABA uptake carrier mediated uptake of ^3 H-GABA was determined in the presence of […].

[2] = test system: GABA uptake; details: cited from earlier work
[3] = test system: GABA uptake; details: into presynaptic nerve terminals and glial cells; cited from earlier work
[4] = test system: GAT-1; details: cloned GAT-1; cited from earlier work
[5] = in vitro, crude brain membrane preparation, 1 mM NNC 05-0711, 30° C., 8 min, 0.9 nM 3H-GABA, 25 nM unlabelled GABA, read-out: IC50 (nM) in vitro, Non-GABA uptake carrier mediated uptake of 3H-GABA

SMILES | IC50 [1, 5] | inhibition of GABA uptake, oral activity [2] | other results
CCc1noc(-c2cc3c4ccccc4n(CCCN4CCC(O)(c5ccccc5)CC4)c3cn2)n1 [Compound 4, 1-(3-(3-(3-Ethyl-1,2,4-oxadiazol-5-yl)-9H-β-carbolin-9-yl)-1-propyl)-4-phenylpiperidin-4-ol] | 932 nM | – | –
OC1(c2ccccc2)CCN(CCCn2c3ccccc3c3cc(-c4nc(C5CC5)no4)ncc32)CC1 [Compound 7, 1-(3-(3-(3-Cyclopropyl-1,2,4-oxadiazol-5-yl)-9H-β-carbolin-9-yl)-1-propyl)-4-phenylpiperidin-4-ol hydrochloride] | – | – | IC50 [1]: 1090 nM
OC1(c2ccccc2)CCN(CCCn2c3ccccc3c3cc(-c4nc(-c5ccccc5)no4)ncc32)CC1 [Compound 10, 1-(3-(3-(3-Phenyl-1,2,4-oxadiazol-5-yl)-9H-β-carbolin-9-yl)-1-propyl)-4-phenylpiperidin-4-ol hydrochloride] | – | – | IC50 [1]: 1440 nM
CCOC(=O)c1cc2c(cn1)[nH]c1ccc([N+](=O)[O-])cc12 [Compound 15, 6-Nitro-9H-β-carboline-3-carboxylic acid ethyl ester] | – | – | IC50 [1]: 6380 nM
C=CCN(CC=C)c1ccc2c(c1)c1cc(-c3nc(CC)no3)ncc1n2CCCN1CCC(O)(c2ccccc2)CC1 [Compound 20, 1-(3-(3-(3-Ethyl-1,2,4-oxadiazol-5-yl)-6-dipropenylamino-9H-β-carbolin-9-yl)-1-propyl-4-phenylpiperidin-4-ol hydrochloride] | 5380 nM | – | –
CCc1noc(-c2cc3c4cc(N(C)C)ccc4n(CCCN4CCC(O)(c5ccccc5)CC4)c3cn2)n1 [Compound 24] | 4690 nM | – | –
Cc1noc(-c2cc3c4ccccc4n(CCCN4CCC(O)(c5ccccc5)CC4)c3cn2)n1 [Compound 26, 1-(3-(3-Methyl-1,2,4-oxadiazol-5-yl)-β-carbolin-9-yl)-1-propyl)-4-phenylpiperidin-4-ol hydrochloride] | 1640 nM | – | –
Cc1nc(-c2cc3c4ccccc4n(CCCN4CCC(O)(c5ccccc5)CC4)c3cn2)no1 [Compound 28, 1-(3-(5-Methyl-1,2,4-oxadiazol-3-yl)-β-carbolin-9-yl)-1-propyl)-4-phenylpiperidin-4-ol hydrochloride] | 1240 nM | – | –
O=C(O)C1CCCN(CCC=C(c2ccccc2)c2ccccc2)C1 (centres unmarked) [SK&F 89976A, N-(4,4-diphenyl-3-buten-1-yl)nipecotic acid] | – | orally active inhibitors of GABA uptake | –
O=C(O)C1=CCCN(CCC=C(c2ccccc2)c2ccccc2)C1 [SK&F 100330A, N-(4,4-diphenyl-3-buten-1-yl)guvacine] | – | orally active inhibitors of GABA uptake | –
O=C(O)CC1CCN(CCC=C(c2ccccc2)c2ccccc2)C1 (stereo not drawn) [SK&F 100561, N-(4,4-diphenyl-3-buten-1-yl)-homo-β-proline] | – | orally active inhibitors of GABA uptake | –
O=C(O)C1CCCN(CCC=C(c2ccccc2)c2cccs2)C1 (centres unmarked) [SK&F 100604J, N-(4-phenyl-4-(2-thienyl)-3-buten-1-yl)nipecotic acid] | – | orally active inhibitors of GABA uptake | –
O=C(O)C1CCCNC1 (centres unmarked) [nipecotic acid, 3-piperidinecarboxylic acid] | – | – | inhibition of GABA uptake from the synaptic cleft [3]: potent inhibitor of GABA uptake; sensitivity of GAT-1 [4]: high sensitivity
